Test results from US20070042949A1, “Pharmaceutical compositions comprising an epitope of platelet gpiiia protein” (priority 2003, published 2007).

Test system: Peripheral blood mononuclear cells (PBMC) from HPA-1b1b women
Assay: T-cell proliferation assay (3H-thymidine incorporation) of PBMC stimulated with HPA-1a/1b 15-mer peptides, HPA-1b1b women
Assay type: cell-based, human
Settings: peptide 20 μg/mL; for immunodominance in stimulating specific T-cell responses in vitro: HPA-1a alloimmunised HPA-1b1b women; for strength of PBMC proliferative response (in words): HPA-1b1b women
Experimental: The cells were stimulated with a panel of 15-mer peptides corresponding to the sequences of the HPA-1a and 1b alloantigens containing Leu33 and Pro33 respectively (see FIG. 1). Two categories of control donors were utilised; 1 HPA-1b1b unimmunised donor and 11 HPA-1a randomly selected female donors. Testing of both patients and controls was carried out in cell culture conditions designed to favour proliferation by previously activated T-cells, rather than primary responses.
The human platelet membrane GPIIIa amino acid sequence reported by Frachet et al Mol. Biol. Rep. 1990, vol 14, 27-33 (genebank accession no: M35999) was used as the basis for production of the HPA-1a and HPA-1b GPIIIa synthetic peptides. Two panels of 15-mer peptides were synthesised corresponding to the sequences of the HPA-1 polymorphic region, with either the Leu-33 or Pro-33 at each possible position (see FIG. 1). One set of the 15-mer peptides contained the leucine polymorphism and the other set of 15 contained the proline polymorphism. To ensure purity each panel was synthesized by f-moc chemistry. The peptides were reconstituted to a concentration of 2.0 mg/ml and used for stimulation of PBMC at 20 μg/mL in culture.
Mononuclear cells were recovered from samples of peripheral blood of all patients and control donors by density gradient centrifugation technique (Lymphoprep; Nycomed, Denmark) according to the manufacturer's instructions. The cells were then manually counted by hemocytometer.
Peripheral blood mononuclear cells were cultured at a concentration of 1.25×10^6 cells per mL in Alpha Modification of Eagle's Medium (Sigma Diagnostic, St. Louis, Mo., USA.) supplemented with 4 mmol/l L-glutamine (Gibco, Paisley, UK), 100 μg/ml streptomycin sulphate (Sigma Diagnostic, St. Louis, Mo., USA), 100 u/mL sodium benzylpenicillin G (Sigma Diagnostic, St. Louis, Mo., USA), 20 mmol/L HEPES, PH 7.2 (Sigma Diagnostic, St. Louis, Mo., USA) and 5% autologous serum or AB serum. Twelve microlitres of synthetic HPA-1a/1b peptides and control antigens (PPD, KLH and ConA) were each added to appropriate wells of the microtitre plates before the cell culture suspension was layered. The culture plates were incubated at 37° C. in a humidified atmosphere of 95% air and 5% CO2 for 5 days. T-cell proliferation in cultures was estimated from the incorporation of ^3H-thymidine in triplicate 100 μL samples withdrawn from the plates 5 days after stimulation. T-cell proliferation results were presented either as the mean counts per minute (CPM)±SD of the triplicate samples or as a stimulation index (SI) expressing the ratio of mean CPM in stimulated versus unstimulated control cultures. A SI >3 was interpreted as representing a positive response.

| Substance | immunodominance in stimulating specific T-cell responses in vitro | strength of PBMC proliferative response (in words) (5 days) | percentage of HPA-1a alloimmunised HPA-1b1b women in whom the peptide elicited proliferation of T-cells (5 days, SI >3 = positive response, 14 alloimmunised women) |
| --- | --- | --- | --- |
| SEQ ID No:4: 15-mer synthetic HPA-1a (Leu-33) GPIIIa peptide, polymorphism in the C-terminal part of the peptide (MCAWCSDEALPLGSP; listed as Homo sapiens) | immunodominant |  |  |
| SEQ ID No:5: 15-mer synthetic HPA-1a (Leu-33) GPIIIa peptide, polymorphism in the C-terminal part of the peptide (CAWCSDEALPLGSPR; listed as Homo sapiens) | immunodominant |  |  |
| SEQ ID No:7: 15-mer synthetic HPA-1a (Leu-33) GPIIIa peptide, polymorphism in the C-terminal part of the peptide (WCSDEALPLGSPRCD; listed as Homo sapiens) | immunodominant | strong responses in particular individuals |  |
| SEQ ID No:3: 15-mer synthetic HPA-1a (Leu-33) GPIIIa peptide, polymorphism in the C-terminal part of the peptide (PMCAWCSDEALPLGS; listed as Homo sapiens) | immunodominant |  |  |
| SEQ ID No:1: 15-mer synthetic HPA-1a (Leu-33) GPIIIa peptide, polymorphism in the C-terminal part of the peptide (VSPMCAWCSDEALPL; listed as Homo sapiens) | immunodominant |  | approximately 50% |
| SEQ ID No:2: 15-mer synthetic HPA-1a (Leu-33) GPIIIa peptide, polymorphism in the C-terminal part of the peptide (SPMCAWCSDEALPLG; listed as Homo sapiens) | immunodominant |  |  |
| SEQ ID No:6: 15-mer synthetic HPA-1a (Leu-33) GPIIIa peptide, polymorphism in the C-terminal part of the peptide (AWCSDEALPLGSPRC; listed as Homo sapiens) | immunodominant | strong responses in particular individuals |  |
